ChEMBL document CHEMBL3639151, “Inhibitors of bruton's tyrosine kinase” (2014)

Molecular target: Tyrosine-protein kinase BTK (Homo sapiens, UniProt Q06187)
Experiment: Inhibition Assay: Plates assayed are 96-well polypropylene (Greiner) and 96-well 1.2 μm hydrophilic PVDF filter plates (Millipore). Concentrations reported here are final assay concentrations: 10-100 μM compounds in DMSO (Burdick and Jackson), 5-10 nM Btk enzyme (His-tagged, full-length), 30 μM peptide substrate (Biotin-Aca-[…]-NH2), 100 μM ATP (Sigma), 8 mM imidazole (Sigma, pH 7.2), 8 mM glycerol-2-phosphate (Sigma), 200 μM EGTA (Roche Diagnostics), 1 mM MnCl2 (Sigma), 20 mM MgCl2 (Sigma), 0.1 mg/ml BSA (Sigma), 2 mM DTT (Sigma), 1 μCi 33P ATP (Amersham), 20% streptavidin sepharose beads (Amersham), 50 mM EDTA (Gibco), 2 M NaCl (Gibco), 2 M NaCl w/1% phosphoric acid (Gibco), microscint-20 (Perkin Elmer).

Chain of Tyrosine-protein kinase BTK (Q06187 whole entry): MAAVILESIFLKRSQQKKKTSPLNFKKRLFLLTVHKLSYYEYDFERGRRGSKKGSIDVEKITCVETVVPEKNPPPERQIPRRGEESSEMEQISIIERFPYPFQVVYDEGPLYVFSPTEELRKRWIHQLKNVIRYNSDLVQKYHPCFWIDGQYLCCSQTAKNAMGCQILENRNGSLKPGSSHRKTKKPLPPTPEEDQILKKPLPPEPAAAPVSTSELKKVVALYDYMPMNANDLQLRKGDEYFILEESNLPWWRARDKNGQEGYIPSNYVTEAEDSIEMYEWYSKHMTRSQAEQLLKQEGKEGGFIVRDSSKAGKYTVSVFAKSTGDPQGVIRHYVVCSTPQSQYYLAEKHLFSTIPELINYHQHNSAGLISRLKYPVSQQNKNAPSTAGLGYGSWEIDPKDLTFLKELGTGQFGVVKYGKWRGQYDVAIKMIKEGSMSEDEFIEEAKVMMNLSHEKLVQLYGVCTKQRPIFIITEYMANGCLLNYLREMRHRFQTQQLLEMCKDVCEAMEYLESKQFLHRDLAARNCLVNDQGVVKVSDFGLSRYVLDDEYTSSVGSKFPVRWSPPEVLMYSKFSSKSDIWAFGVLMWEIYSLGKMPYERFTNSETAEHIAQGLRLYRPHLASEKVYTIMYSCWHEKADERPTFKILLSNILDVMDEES

IC50: 0.09 nM
Structure (SMILES): CC(C)(C)c1cc(F)c2c(=O)n(-c3cccc(-n4cc(C(N)=O)c(Nc5ccc(S(C)(=O)=O)cc5)n4)c3CO)ncc2c1
